In ChEMBL document CHEMBL2385047, “Synthesis and antifungal evaluation of pentyloxyl-diphenylisoxazoloyl pneumocandins and echinocandins” (Bioorg Med Chem Lett, 2013):
In brackets after ≈: the same amount, converted by molar mass. Numbered stars: 1 amine (or outer) side, 2 acyl side, 3 side chain; on linkers, the order of the positions; unused ones are H or OH. Bridge positions count the residues as written; N and C are the ends. Square brackets hold non-standard residues; d marks the D form. Peptide text beside a SMILES is read from it. * marks the point of attachment. Orn(4R-OH,5R-OH) = O=C([C@H](C[C@@H](O)[C@@H](O)N[*:3])N[*:1])[*:2]; hTyr(3S-OH,4S-OH) = N[C@H](C(=O)O)[C@H](O)[C@@H](O)c1ccc(O)cc1; Pro(3S-OH,4S-Me) = C[C@H]1CN[C@H](C(=O)O)[C@H]1O; X1 = CCCCCOc1ccc(-c2cc(-c3ccc(C(=O)*)cc3)no2)cc1; Gln(3R-OH) = NC(=O)C[C@@H](O)[C@H](N)C(=O)O; Pro(3S-OH) = O=C(O)[C@H]1NCC[C@@H]1O; Hyp = O=C(O)[C@@H]1C[C@@H](O)CN1

Tests used:
Beta-1,3-glucan synthase [1] = target: T1, Beta-1,3-glucan synthase (Candida albicans, UniProt O13383); experiment: Inhibition of wild type Candida albicans 1,3-beta-D-glucan synthase using UDP[6,3H]-glucose as substrate after 60 mins by liquid scintillation counting analysis
T1 sequence (O13383 whole entry): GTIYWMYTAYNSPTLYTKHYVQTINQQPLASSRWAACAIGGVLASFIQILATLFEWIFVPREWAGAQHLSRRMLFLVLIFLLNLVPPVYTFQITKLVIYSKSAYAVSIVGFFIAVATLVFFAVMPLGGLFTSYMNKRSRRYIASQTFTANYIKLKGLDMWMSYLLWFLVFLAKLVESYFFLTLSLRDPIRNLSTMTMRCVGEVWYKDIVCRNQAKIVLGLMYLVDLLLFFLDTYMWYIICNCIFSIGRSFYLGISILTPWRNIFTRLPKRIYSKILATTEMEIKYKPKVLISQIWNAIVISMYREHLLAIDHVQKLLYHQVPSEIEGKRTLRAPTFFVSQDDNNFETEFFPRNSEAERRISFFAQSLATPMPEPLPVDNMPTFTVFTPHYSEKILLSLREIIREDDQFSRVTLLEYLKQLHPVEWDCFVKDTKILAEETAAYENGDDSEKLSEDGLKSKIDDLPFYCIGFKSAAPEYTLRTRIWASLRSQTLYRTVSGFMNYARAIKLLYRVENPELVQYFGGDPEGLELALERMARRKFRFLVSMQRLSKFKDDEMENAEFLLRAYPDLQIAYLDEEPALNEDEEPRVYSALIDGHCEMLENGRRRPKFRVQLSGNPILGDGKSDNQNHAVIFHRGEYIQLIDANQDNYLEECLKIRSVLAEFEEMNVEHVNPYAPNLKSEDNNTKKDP

Escherichia coli = experiment: Antibacterial activity against Escherichia coli ATCC 25922 assessed as growth inhibition after 24 hrs by NCCLS broth microdilution method; assay type: functional; conditions: ATCC 25922, 24 h, read-out: MIC100
Staphylococcus aureus = experiment: Antibacterial activity against methicillin-sensitive Staphylococcus aureus MB2865 assessed as growth inhibition after 24 hrs by NCCLS broth microdilution method; assay type: functional; conditions: MB2865, 24 h, read-out: MIC100
Candida albicans [2] = experiment: Antifungal activity against Candida albicans NR3 assessed as growth inhibition after 24 hrs by NCCLS broth microdilution method; assay type: functional; conditions: NR3, 24 h; for MIC: read-out: MIC100
Candida albicans [3] = experiment: Antifungal activity against Candida albicans CAI4-R1 assessed as growth inhibition after 24 hrs by NCCLS broth microdilution method; assay type: functional; conditions: CAI4-R1, 24 h; for MIC: read-out: MIC100
Candida albicans [4] = experiment: Antifungal activity against wild type Candida albicans CAI4 assessed as growth inhibition after 24 hrs by NCCLS broth microdilution method; assay type: functional; conditions: CAI4, 24 h; for MIC: read-out: MIC100
[5] = test system: Meyerozyma guilliermondii; experiment: Antifungal activity against wild type Candida guilliermondii CLY308 assessed as growth inhibition after 24 hrs by NCCLS broth microdilution method; assay type: functional; conditions: CLY308, 24 h; for MIC: read-out: MIC100
Aspergillus fumigatus = experiment: Antifungal activity against Aspergillus fumigatus MF5668 caspofungin spontaneous resistance mutant assessed as growth inhibition after 24 hrs by NCCLS broth microdilution method; assay type: functional; conditions: MF5668, 24 h; for minimal effective concentration: read-out: MEC
Cryptococcus neoformans = experiment: Antifungal activity against capsular wild type Cryptococcus neoformans MY2061 assessed as growth inhibition after 24 hrs by NCCLS broth microdilution method; assay type: functional; conditions: MY2061, 24 h, read-out: MIC100
Candida parapsilosis = experiment: Antifungal activity against wild type Candida parapsilosis ATCC 22019 assessed as growth inhibition after 24 hrs by NCCLS broth microdilution method; assay type: functional; conditions: Lodderomyces parapsilosis, ATCC 22019, 24 h; for MIC: read-out: MIC100
Pichia kudriavzevii = experiment: Antifungal activity against wild type Candida krusei CLY549 assessed as growth inhibition after 24 hrs by NCCLS broth microdilution method; assay type: functional; conditions: CLY549, 24 h; for MIC: read-out: MIC100
Clavispora lusitaniae = experiment: Antifungal activity against wild type Candida lusitaniae MY1396 assessed as growth inhibition after 24 hrs by NCCLS broth microdilution method; assay type: functional; conditions: MY1396, 24 h; for MIC: read-out: MIC100
Nakaseomyces glabratus = experiment: Antifungal activity against wild type Candida glabrata MY1381 assessed as growth inhibition after 24 hrs by NCCLS broth microdilution method; assay type: functional; conditions: MY1381, 24 h; for MIC: read-out: MIC100
Candida albicans [6] = experiment: Antifungal activity against wild type Candida albicans MY1055 assessed as growth inhibition after 24 hrs by NCCLS broth microdilution method in presence of human serum; assay type: functional; conditions: MY1055, 24 h; for MIC: read-out: MIC100
Candida albicans [7] = experiment: Antifungal activity against wild type Candida albicans MY1055 assessed as growth inhibition after 24 hrs by NCCLS broth microdilution method; assay type: functional; conditions: MY1055, 24 h; for MIC: read-out: MIC100
Candida albicans [8] = experiment: Antifungal activity against Candida albicans MY1055 infected in DBA/2 mouse assessed as reduction of log CFU in kidney administered 30 mins as ip tid post infection measured after 24 hrs; assay type: functional
Candida albicans [9] = experiment: Antifungal activity against caspofungin-resistant Candida albicans CLY-16996 harboring 1,3-beta-D-glucan synthase component FKS1/FKS1 S645F mutant assessed as growth inhibition after 24 hrs by NCCLS broth microdilution method; assay type: functional; conditions: CLY-16996, 24 h
[10] = Inhibition of caspofungin-resistant Candida albicans CLY-16997 1,3-beta-D-glucan synthase component FKS1/FKS1 S645P mutant using UDP[6,3H]-glucose as substrate after 60 mins by liquid scintillation counting analysis
[11] = Inhibition of caspofungin-resistant Candida albicans CLY-16996 1,3-beta-D-glucan synthase component FKS1/FKS1 S645F mutant using UDP[6,3H]-glucose as substrate after 60 mins by liquid scintillation counting analysis
Beta-1,3-glucan synthase [12] = target: T1, Beta-1,3-glucan synthase; experiment: Inhibition of wild type Candida albicans MY1055 1,3-beta-D-glucan synthase using UDP[6,3H]-glucose as substrate after 60 mins by liquid scintillation counting analysis

| SMILES | MIC (Escherichia coli) [µg/mL] | MIC (Staphylococcus aureus) [µg/mL] | MIC80 (Candida albicans [2]) [µg/mL] | MIC (Candida albicans [2]) [µg/mL] | MIC80 (Candida albicans [3]) [µg/mL] | MIC (Candida albicans [3]) [µg/mL] | MIC80 (Candida albicans [4]) [µg/mL] | MIC (Candida albicans [4]) [µg/mL] | MIC80 [5] [µg/mL] | MIC [5] [µg/mL] | MIC80 (Aspergillus fumigatus) [µg/mL] | minimal effective concentration (Aspergillus fumigatus) [µg/mL] | MIC (Cryptococcus neoformans) [µg/mL] | MIC80 (Candida parapsilosis) [µg/mL] | MIC (Candida parapsilosis) [µg/mL] | MIC80 (Pichia kudriavzevii) [µg/mL] | MIC (Pichia kudriavzevii) [µg/mL] | MIC80 (Clavispora lusitaniae) [µg/mL] | MIC (Clavispora lusitaniae) [µg/mL] | MIC80 (Nakaseomyces glabratus) [µg/mL] | other results |
| --- | --- | --- | --- | --- | --- | --- | --- | --- | --- | --- | --- | --- | --- | --- | --- | --- | --- | --- | --- | --- | --- |
| CCCCCOc1ccc(-c2cc(-c3ccc(C(=O)N[C@H]4C[C@@H](O)[C@@H](O)NC(=O)[C@@H]5[C@@H](O)[C@@H](C)CN5C(=O)[C@H]([C@@H](C)O)NC(=O)[C@H]([C@H](O)[C@@H](O)c5ccc(O)cc5)NC(=O)[C@@H]5C[C@@H](O)CN5C(=O)[C@H]([C@@H](C)O)NC4=O)cc3)no2)cc1 (X1-[Orn(4R-OH,5R-OH)]T[Hyp][hTyr(3S-OH,4S-OH)]T[Pro(3S-OH,4S-Me)]; lactam 1-C) | > 32 | > 32 | 4 (≈ 3.54 µM) | 16 (≈ 14.1 µM) | 1 (≈ 0.884 µM) | 8 (≈ 7.07 µM) | < 0.03 | 0.5 (≈ 0.442 µM) | 2 (≈ 1.77 µM) | 4 (≈ 3.54 µM) | < 0.03 | > 32 | > 32 | 4 (≈ 3.54 µM) | 32 (≈ 28.3 µM) | 0.5 (≈ 0.442 µM) | 1 (≈ 0.884 µM) | 0.125 (≈ 0.111 µM) | 1 (≈ 0.884 µM) | 0.25 (≈ 0.221 µM) | IC50 (Beta-1,3-glucan synthase [1]): 4.4 nM; MIC (Nakaseomyces glabratus): 1 µg/mL (≈ 0.884 µM); MIC80 (Candida albicans [6]): 0.5 µg/mL; MIC (Candida albicans [6]): 2 µg/mL; MIC80 (Candida albicans [7]): 0.06 µg/mL (≈ 0.053 µM); MIC (Candida albicans [7]): 0.5 µg/mL (≈ 0.442 µM) |
| CCCCCOc1ccc(-c2cc(-c3ccc(C(=O)N[C@H]4C[C@@H](O)[C@@H](O)NC(=O)[C@@H]5[C@@H](O)CCN5C(=O)[C@H]([C@H](O)CC(N)=O)NC(=O)[C@H]([C@H](O)[C@@H](O)c5ccc(O)cc5)NC(=O)[C@@H]5C[C@@H](O)CN5C(=O)[C@H]([C@@H](C)O)NC4=O)cc3)no2)cc1 (X1-[Orn(4R-OH,5R-OH)]T[Hyp][hTyr(3S-OH,4S-OH)][Gln(3R-OH)][Pro(3S-OH)]; lactam 1-C) | > 32 | > 32 | 4 (≈ 3.45 µM) | 8 (≈ 6.9 µM) | 1 (≈ 0.862 µM) | 4 (≈ 3.45 µM) | < 0.03 | 0.06 (≈ 0.0517 µM) | 1 (≈ 0.862 µM) | 2 (≈ 1.72 µM) | < 0.03 | > 32 | > 32 | 2 (≈ 1.72 µM) | 32 (≈ 27.6 µM) | 0.25 (≈ 0.215 µM) | 2 (≈ 1.72 µM) | < 0.03 | 0.125 (≈ 0.108 µM) | 0.25 (≈ 0.215 µM) | ED90 (Candida albicans [8]): 0.24 mg/kg/day; ED99 (Candida albicans [8]): 1.31 mg/kg/day; MIC (Candida albicans [9]): 2 µg/mL (≈ 1.72 µM); IC50 [10]: 2.4 nM; IC50 [11]: 2.1 nM; IC50 (Beta-1,3-glucan synthase [12]): 2.8 nM; MIC (Nakaseomyces glabratus): 0.5 µg/mL (≈ 0.431 µM); MIC80 (Candida albicans [6]): 0.25 µg/mL; MIC (Candida albicans [6]): 1 µg/mL; MIC80 (Candida albicans [7]): < 0.03 µg/mL; MIC (Candida albicans [7]): 0.125 µg/mL (≈ 0.108 µM) |
